Test results: the CheMixHub viscosity set
Where “and” joins values, the source holds several entries; their conditions need not be identical. Identical values can stand only once.

Assay: xn = mol fraction of the nth substance listed

FC(F)(Cl)C(F)(F)Cl + FC(F)Cl
101 kPa
Conditions	viscosity [mPa·s]
293.25 K, x2 = 0.182	0.3196
293.25 K, x2 = 0.457	0.2521
293.25 K, x2 = 0.568	0.2391
293.25 K, x2 = 0.663	0.2175
293.25 K, x2 = 0.748	0.1992
293.35 K, x2 = 0.947	0.1767
293.75 K, x2 = 0.329	0.2853
312.85 K, x2 = 0.457	0.2097
312.85 K, x2 = 0.663	0.1757
312.95 K, x2 = 0.182	0.2474
312.95 K, x2 = 0.821	0.1515
313.05 K, x2 = 0.568	0.1902
313.05 K, x2 = 0.748	0.1648
313.05 K, x2 = 0.947	0.141
313.15 K, x2 = 0.891	0.1461
313.55 K, x2 = 0.329	0.2284

Clc1ccc(Cl)c(Cl)c1 + Nc1cccc(Cl)c1
viscosity [mPa·s], 100 kPa
Conditions	x2 = 0.0895	x2 = 0.1795	x2 = 0.3125	x2 = 0.4256	x2 = 0.5169	x2 = 0.6254	x2 = 0.7145	x2 = 0.8102	x2 = 0.9012
303.15 K	1.993	2.225	2.565	2.851	3.079	3.348	3.566	3.798	4.017
308.15 K	1.825	2.033	2.337	2.593	2.797	3.037	3.231	3.437	3.631
313.15 K	1.658	1.843	2.111	2.336	2.516	2.727	2.896	3.078	3.248
318.15 K	1.493	1.653	1.887	2.083	2.237	2.419	2.566	2.722	2.867

Clc1ccc(Cl)c(Cl)c1 + Nc1ccccc1Cl
viscosity [mPa·s], 101 kPa
Conditions	x2 = 0.1164	x2 = 0.2287	x2 = 0.337	x2 = 0.4415	x2 = 0.5425	x2 = 0.6402	x2 = 0.7346	x2 = 0.8259	x2 = 0.9143
303.15 K	1.936	2.118	2.307	2.504	2.708	2.919	3.137	3.361	3.59
308.15 K	1.773	1.935	2.103	2.277	2.456	2.639	2.827	3.018	3.214
313.15 K	1.614	1.761	1.912	2.067	2.226	2.388	2.553	2.72	2.889
318.15 K	1.46	1.595	1.734	1.875	2.019	2.165	2.313	2.462	2.612

CC(N)C(=O)O (stereo not drawn) + O
viscosity, 101 kPa
Conditions	x1 = 0.0004	x1 = 0.0007	x1 = 0.001	x1 = 0.0018	x1 = 0.0022	x1 = 0.0025	x1 = 0.0029	x1 = 0.0032	x1 = 0.0036
293.15 K	1.006 mPa·s	1.012 mPa·s	1.017 mPa·s and 1.022 mPa·s	–	–	1.038 mPa·s	1.043 mPa·s	–	–
298.15 K	0.8956 mPa·s	0.9003 mPa·s	0.9054 mPa·s	0.915 mPa·s	0.9199 mPa·s	0.9246 mPa·s	0.929 mPa·s	0.934 mPa·s	0.9389 mPa·s
303.15 K	0.8028 mPa·s	0.8077 mPa·s	0.8122 mPa·s	0.8213 mPa·s	0.8256 mPa·s	0.8299 mPa·s	0.8341 mPa·s	0.8382 mPa·s	0.8429 mPa·s
308.15 K	0.7254 mPa·s	0.7303 mPa·s	0.7349 mPa·s	0.7436 mPa·s	0.7478 mPa·s	0.7519 mPa·s	0.7558 mPa·s	0.7599 mPa·s	0.7635 mPa·s
313.15 K	0.6592 mPa·s	0.6641 mPa·s	0.6726 mPa·s	0.6767 mPa·s	0.6804 mPa·s	–	0.688 mPa·s	0.6916 mPa·s	0.6953 mPa·s
